Measured values reported in patent US20180066241A1, “PRO-APOPTOTIC SET AND PP2A PEPTIDES” (Universite Pierre Et Marie Curie (Paris 6), priority 2015, published 2018).

Legend:
[1] = biological target: SET protein (Homo sapiens, UniProt Q01105); assay: Binding assay on cellulose-bound overlapping PP2Ac peptides incubated with SET protein; conditions: four overlapping dodecapeptides, anti-SET antibody, ECL detection
Description: (§1) FIG. 1A and 1B show determination of the binding site of PP2A to SET and vice versa. A) Overlapping dodecapeptides with two amino acid shift covering the whole PP2A protein were bound to a solid support. The membrane was incubated sequentially with SET protein, and anti-SET antibody, followed by a peroxidase-labeled secondary antibody. […] The sequence corresponding to the identified spots is shown. B) Overlapping dodecapeptides with two amino acid shift covering the whole human SET protein were bound to a solid support. The membrane was incubated sequentially with PP2A protein, and anti-PP2A antibody, followed by a peroxidase-labeled secondary antibody. […] The sequence corresponding to the identified spots is shown.
(§2) Overlapping peptides covering the whole human PP2Ac or SET sequence were prepared by automated spot synthesis (Abimed, Langerfeld, Germany) onto an amino-derived cellulose membrane, as described (Frank and Overwin, 1996; Gausepohl et al. 1992). The membranes were blocked, incubated with purified recombinant SET or PP2A protein, after several washing steps, incubated with anti-SET2 (Bethyl Laboratories) or anti-PP2Ac antibody (Santa Cruz), and followed by PO-conjugated secondary antibody. Protein interactions were visualized using ECL system (Pierce). […]

[2] = biological target: PP2Ac protein (Homo sapiens, UniProt P67775); assay: Binding assay on cellulose-bound overlapping SET peptides incubated with PP2A protein; conditions: six overlapping dodecapeptides, anti-PP2Ac antibody, ECL detection
PP2Ac protein, sequence (P67775 whole entry): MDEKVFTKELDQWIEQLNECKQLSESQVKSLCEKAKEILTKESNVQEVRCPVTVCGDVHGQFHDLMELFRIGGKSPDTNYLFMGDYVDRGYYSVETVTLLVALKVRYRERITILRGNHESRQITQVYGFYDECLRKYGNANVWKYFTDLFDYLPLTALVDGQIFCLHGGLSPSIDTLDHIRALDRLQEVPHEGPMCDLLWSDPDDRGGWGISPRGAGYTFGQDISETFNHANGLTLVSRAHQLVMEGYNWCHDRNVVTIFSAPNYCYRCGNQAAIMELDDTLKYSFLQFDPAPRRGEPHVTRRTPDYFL
Description: as §1, §2

[3] = system: H1975 cell line; assay: Detection of apoptosis by Annexin-V-FITC staining, H1975; type: cell-based, Human; conditions: H1975 cells, peptide 100 μM for 24 h, compared to control non treated cells
Description: (§3) H1975 and H1299 cell lines were cultured in the presence or in the absence (control) of the Mut3DPT-PP2Ac peptide at a concentration of 100 μM for 24 h. Apoptosis was detected by Annexin V-FITC staining and analyzed by flow cytometry. Mut3-DPT-PP2A is VKKKKIKAEIKI-ETVTLLVALKVRYRERIT (SEQ ID NO: 32).
(§4) Human non small cell lung carcinoma cell lines H1975 and H1299, as well as breast cancer cell line MDA-MB231 were cultured in DMEM (Gibco Life technologies) medium supplemented with 10% FCS.
(§5) Apopotic cells were detected using Annexin-V (-FITC from BD biosciences) as described by the manufacturer. Briefly, the cells were washed in lx binding buffer, centrifugated and then resuspended in 200 μL of 1× binding buffer containing Annexin V-FITC and propidium iodide (PI). After incubation at room temperature in the dark for 10 min, cells were analyzed with FACS Calibur cytofluometer (BD Biosciences).
(§6) The effect of peptides treatment was compared to untreated cells. The peptides were used at 100 μM for 24 h.

[4] = system: H1299 cell line; assay: Detection of apoptosis by Annexin-V-FITC staining, H1299; type: cell-based, Human; conditions: H1299 cells, peptide 100 μM for 24 h, compared to control non treated cells
Description: as §3, §4, §5, §6

[5] = system: Daudi cell line; assay: Detection of apoptosis by Annexin-V-FITC staining, Daudi; type: cell-based, Human; conditions: Daudi cells, peptide 100 μM for 24 h, compared to control non treated cells
Description: (§7) Daudi, Raji and Jok 1 cell lines were cultured in the presence or in the absence (control) of the Mut3DPT-PP2A peptide at a concentration of 100 μM for 24 h. Apoptosis was detected by Annexin V-FITC staining and analyzed by flow cytometry. Mut3-DPT-PP2A is VKKKKIKAEIKI-ETVTLLVALKVRYRERIT (SEQ ID NO: 32).
(§8) Human B lymphoblast Daudi cell line, human lymphoblast-like Raji cell line and a Hairy cell leukemia-derived cell line Jok1 were cultured in DMEM (Gibco Life technologies) medium supplemented with 10% FCS.
(§9) Apopotic cells were detected using Annexin-V (-FITC from BD biosciences) as described above.
(§10) The effect of Mut3DPT-PP2Ac peptide treatment was compared to untreated cells. The peptides were used at 100 μM for 24 h.

[6] = system: Raji cell line; assay: Detection of apoptosis by Annexin-V-FITC staining, Raji; type: cell-based, Human; conditions: Raji cells, peptide 100 μM for 24 h, compared to control non treated cells
Description: as §7, §8, §9, §10

[7] = system: Jok1 cell line; assay: Detection of apoptosis by Annexin-V-FITC staining, Jok1; type: cell-based, Human; conditions: Jok1 cells, peptide 100 μM for 24 h, compared to control non treated cells
Description: as §7, §8, §9, §10

[8] = system: MDA-MB231 cell line; assay: Detection of apoptosis by Annexin-V-FITC staining, MDA-MB231; type: cell-based, Human; conditions: MDA-MB231 cells, peptide 100 μM for 24 h, compared to control non treated cells
Description: MDA-MB231 cell line was cultured in the presence or in the absence (control) of the Mut3DPT-SET peptide at a concentration of 100 μM for 24 h. Apoptosis was detected by Annexin V-FITC staining and analyzed by flow cytometry. Mut3-DPT-SET is VKKKKIKAEIKI-[…] (SEQ ID NO: 33).
as §4, §5, §6

SET protein, sequence (Q01105 1-277 isoform Q01105-2): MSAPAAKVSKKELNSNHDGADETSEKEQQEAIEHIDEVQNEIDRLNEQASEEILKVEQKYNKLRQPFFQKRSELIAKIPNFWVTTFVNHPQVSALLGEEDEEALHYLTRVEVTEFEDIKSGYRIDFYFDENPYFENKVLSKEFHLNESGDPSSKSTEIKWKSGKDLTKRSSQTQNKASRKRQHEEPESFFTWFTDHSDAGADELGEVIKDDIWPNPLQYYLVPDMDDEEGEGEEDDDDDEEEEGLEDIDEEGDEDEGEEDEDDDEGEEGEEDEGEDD

In the case of “ETVTLLVALKVRYRERIT (Synthetic peptide PP2Ac) [SEQ ID NO: 1]”, the “binding of SET protein to cellulose-bound PP2Ac sequence” value [1] was “bound by SET protein”.
“PSSKSTEIKWKSGKDLTKRSSQ (Synthetic peptide SET) [SEQ ID NO: 2]” was tested, and the “binding of PP2Ac protein to cellulose-bound SET sequence” value [2] was “bound by PP2Ac protein”.
“VKKKKIKAEIKI-ETVTLLVALKVRYRERIT (VKKKKIKAEIKIETVTLLVALKVRYRERIT) [Mut3DPT-PP2Ac]” was tested, and the “apoptosis (Annexin V-FITC staining, flow cytometry)” value (“apoptosis” for short) [3] was “has apoptotic effect”, the “apoptosis” value [4] was “has apoptotic effect” and the “apoptosis” value [5] was “has an apoptotic effect”. The “apoptosis” value [6] was “has an apoptotic effect” and the “apoptosis” value [7] was “has an apoptotic effect”.
“VKKKKIKAEIKI-PSSKSTEIKWKSGKDLTKRSSQ (VKKKKIKAEIKIPSSKSTEIKWKSGKDLTKRSSQ) [Mut3DPT-SET]” was tested, and the “apoptosis” value [8] was “slight apoptosis increase”.
